Reference: US20020137929A1, “1 - (3-heterocyclylphenyl) isothiourea, -isourea, -guanidine and -amidine herbicidal agents” (Intellectual Property Department, BASF Aktiengesellschaft, priority 1998, published 2002)

Legend:
[1] = system: TRZAWR (Wheat, Winter, cv Riband); test: Preemergence herbicidal evaluation; type: in vivo, Triticum aestivum; details: rated 4-5 weeks after treatment; for TRZAWR rating: preemergence, 0-9 scale
Method in brief: (§1)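 Herbicidal effect scored visually, 0-9, at 4 to 5 weeks against a control; compound applied preemergence by aqueous acetone spray to seeded soil at about 0.0156 to 0.500 kg/ha.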

MOOVA (Monochoria) = test: Preemergence weed control under flooded paddy conditions; type: in vivo, Monochoria vaginalis; details: rated 3-4 weeks after treatment
Method in brief: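 Values are visual 0-9 scores against a control for a preemergence application into paddy flood water at about 0.0313 to 0.500 kg/ha. Greenhouse duration was three to four weeks.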

[2] = system: SAGPY (Arrowhead (Pygmaea)); test: Postemergence weed control under flooded paddy conditions; type: in vivo, Sagittaria pygmaea; details: postemergence weeds, rated 3 to 4 weeks after treatment
Method in brief: (§2)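 Injury ratings (0–9 scale covering stand, vigor, malformation, size, chlorosis and overall appearance versus control) were made three to four weeks after treatment. Test material, about 0.0313 to 0.500 kg/ha a.i. in 50/50 v/v aqueous/acetone, was added to flood water 1.5 to 3 cm deep over 3 to 5 cm weeds and 1.5 to 2.5 leaf rice.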

ECHCG (Barnyardgrass) = test: Postemergence herbicidal evaluation; type: in vivo, Echinochloa crus-galli; details: for ECHCG herbicidal rating: postemergence
Method in brief: (§3)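 Herbicidal effect was judged by eye on a 0–9 scale covering stand, vigor, deformity, size and chlorosis, compared with controls, four to five weeks after seedlings about two weeks old were sprayed (40 psi, ~0.0156–0.500 kg/ha).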

ZEAMX (Corn, Field) = test: Preemergence herbicidal evaluation; type: in vivo, Zea mays; details: rated 4-5 weeks after treatment; for ZEAMX rating: preemergence, 0-9 scale
Method in brief: as §1

SETVI (Foxtail, Green) = test: Postemergence herbicidal evaluation; type: in vivo, Setaria viridis; details: for SETVI herbicidal rating: postemergence
Method in brief: as §3

GALAP (Galium) = test: Postemergence herbicidal evaluation; type: in vivo, Galium aparine; details: for GALAP herbicidal rating: postemergence
Method in brief: as §3

ORYSAT (Rice, Tebonnet) = test: Postemergence herbicidal evaluation; type: in vivo, Oryza sativa, (L.) Tebonnet; details: for ORYSAT herbicidal rating: postemergence
Method in brief: as §3

CYPIR (Rice Flatsedge) [3] = test: Postemergence weed control under flooded paddy conditions; type: in vivo, Cyperus iria; details: postemergence weeds, rated 3 to 4 weeks after treatment
Method in brief: as §2

CYPSE (Flatsedge) = test: as above; type: in vivo, Cyperus serotinus; details: postemergence weeds, rated 3 to 4 weeks after treatment
Method in brief: as §2

ABUTH (Velvetleaf) = test: Postemergence herbicidal evaluation; type: in vivo, Abutilon theophrasti; details: for ABUTH herbicidal rating: postemergence
Method in brief: as §3

[4] = system: IPOHE (Morningglory, Ivyleaf); test: Preemergence herbicidal evaluation; type: in vivo, Ipomoea hederacea; details: rated 4-5 weeks after treatment; for IPOHE rating: preemergence, 0-9 scale
Method in brief: as §1

CYPIR (Rice Flatsedge) [5] = test: Preemergence weed control under flooded paddy conditions; type: in vivo, Cyperus iria; details: rated 3-4 weeks after treatment
Method in brief: (§4)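 First, seeds or propagules go into the top 0.5 cm of silt loam; next, water is held 1.5 to 3 cm over the soil; then compound (50/50 acetone/water) is pipetted into it at about 0.0313 to 0.500 kg/ha; finally plants are rated visually 0-9 after three to four weeks.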

[6] = system: ECHORC (Watergrass (Calif.)); test: as above; type: in vivo, Echinochloa oryzoides; details: rated 3-4 weeks after treatment
Method in brief: as §4

SMILES: Cn1c(C(F)(F)F)cc(=O)n(-c2cc(/N=C3/SC(CC(=O)O)C(=O)N3CC(=O)O)c(Cl)cc2F)c1=O (stereo not drawn) [Compound 61, 2-{{2-Chloro-5-[3,6-dihydro-3-methyl-2,6-dioxo-4-(trifluoromethyl)-1(2H)-pyrimidinyl]-4-fluorophenyl}imino}-4-oxo-3,5-thiazolidinediacetic acid]
- Preemergence herbicidal rating TRZAWR ([1]; rate 0.1250 kg/ha): 0.0
- Preemergence herbicidal rating TRZAWR ([1]; rate 0.2500 kg/ha): 1.0
- MOOVA herbicidal effect rating (MOOVA (Monochoria); 0.2500 kg/ha): 0.0
- Herbicidal rating SAGPY ([2]; Rate 0.2500 kg/ha): 0.0
- Postemergence herbicidal rating ECHCG (ECHCG (Barnyardgrass); Rate 0.0158 kg/ha): 0.0
- Postemergence herbicidal rating ECHCG (ECHCG (Barnyardgrass); Rate 0.0315 kg/ha): 0.0
- Postemergence herbicidal rating ECHCG (ECHCG (Barnyardgrass); Rate 0.0630 kg/ha): 0.0
- Preemergence herbicidal rating ZEAMX (ZEAMX (Corn, Field); rate 0.1250 kg/ha): 0.0
- Preemergence herbicidal rating ZEAMX (ZEAMX (Corn, Field); rate 0.2500 kg/ha): 1.0
- Postemergence herbicidal rating SETVI (SETVI (Foxtail, Green); Rate 0.0158 kg/ha): 0.0
- Postemergence herbicidal rating SETVI (SETVI (Foxtail, Green); Rate 0.0315 kg/ha): 0.0
- Postemergence herbicidal rating SETVI (SETVI (Foxtail, Green); Rate 0.0630 kg/ha): 2.0
- Postemergence herbicidal rating GALAP (GALAP (Galium); Rate 0.0158 kg/ha): 0.0
- Postemergence herbicidal rating GALAP (GALAP (Galium); Rate 0.0315 kg/ha): 0.0
- Postemergence herbicidal rating GALAP (GALAP (Galium); Rate 0.0630 kg/ha): 0.0
- Postemergence herbicidal rating ORYSAT (ORYSAT (Rice, Tebonnet); Rate 0.0158 kg/ha): 0.5
- Postemergence herbicidal rating ORYSAT (ORYSAT (Rice, Tebonnet); Rate 0.0315 kg/ha): 0.5
- Postemergence herbicidal rating ORYSAT (ORYSAT (Rice, Tebonnet); Rate 0.0630 kg/ha): 1.5
- Herbicidal rating CYPIR (CYPIR (Rice Flatsedge) [3]; Rate 0.2500 kg/ha): 0.0
- Herbicidal rating CYPSE (CYPSE (Flatsedge); Rate 0.2500 kg/ha): 0.0
- Postemergence herbicidal rating ABUTH (ABUTH (Velvetleaf); Rate 0.0158 kg/ha): 0.0
- Postemergence herbicidal rating ABUTH (ABUTH (Velvetleaf); Rate 0.0315 kg/ha): 0.0
- Postemergence herbicidal rating ABUTH (ABUTH (Velvetleaf); Rate 0.0630 kg/ha): 0.0
- Preemergence herbicidal rating IPOHE ([4]; rate 0.1250 kg/ha): 0.0
- Preemergence herbicidal rating IPOHE ([4]; rate 0.2500 kg/ha): 0.0
- CYPIR herbicidal effect rating (CYPIR (Rice Flatsedge) [5]; 0.2500 kg/ha): 0.0
- ECHORC herbicidal effect rating ([6]; 0.2500 kg/ha): 0.0

SMILES: CN1C(=O)C(CC(=O)Nc2ccccc2)SC1=Nc1cc(-n2c(=O)cc(C(F)(F)F)n(C)c2=O)c(F)cc1Cl (stereo not drawn) [Compound 91, 2-{{2-Chloro-5-[3,6-dihydro-3-methyl-2,6-dioxo-4-(trifluoromethyl)-1(2H)-pyrimidinyl]-4-fluorophenyl}imino}-3-methyl-4-oxo-5-thiazolidineacetanilide]
- TRZAWR rating ([1]; 0.1250 kg/ha): 0.0
- TRZAWR rating ([1]; 0.2500 kg/ha): 0.0
- MOOVA herbicidal effect rating (MOOVA (Monochoria); 0.0313 kg/ha): 9.0
- MOOVA herbicidal effect rating (MOOVA (Monochoria); 0.0625 kg/ha): 9.0
- MOOVA herbicidal effect rating (MOOVA (Monochoria); 0.1250 kg/ha): 9.0
- MOOVA herbicidal effect rating (MOOVA (Monochoria); 0.2500 kg/ha): 9.0
- Herbicidal rating SAGPY ([2]; Rate 0.0313 kg/ha): 0.0
- Herbicidal rating SAGPY ([2]; Rate 0.0625 kg/ha): 0.0
- Herbicidal rating SAGPY ([2]; Rate 0.1250 kg/ha): 0.0
- Herbicidal rating SAGPY ([2]; Rate 0.2500 kg/ha): 0.0
- ECHCG herbicidal rating (ECHCG (Barnyardgrass); rate 0.0158 kg/ha): 0.0
- ECHCG herbicidal rating (ECHCG (Barnyardgrass); rate 0.0315 kg/ha): 0.0
- ECHCG herbicidal rating (ECHCG (Barnyardgrass); rate 0.0630 kg/ha): 0.0
- ZEAMX rating (ZEAMX (Corn, Field); 0.1250 kg/ha): 0.0
- ZEAMX rating (ZEAMX (Corn, Field); 0.2500 kg/ha): 0.0
- SETVI herbicidal rating (SETVI (Foxtail, Green); rate 0.0158 kg/ha): 0.0
- SETVI herbicidal rating (SETVI (Foxtail, Green); rate 0.0315 kg/ha): 0.0
- SETVI herbicidal rating (SETVI (Foxtail, Green); rate 0.0630 kg/ha): 0.0
- GALAP herbicidal rating (GALAP (Galium); rate 0.0158 kg/ha): 0.0
- GALAP herbicidal rating (GALAP (Galium); rate 0.0315 kg/ha): 0.0
- GALAP herbicidal rating (GALAP (Galium); rate 0.0630 kg/ha): 0.0
- ORYSAT herbicidal rating (ORYSAT (Rice, Tebonnet); rate 0.0158 kg/ha): 1.0
- ORYSAT herbicidal rating (ORYSAT (Rice, Tebonnet); rate 0.0315 kg/ha): 1.0
- ORYSAT herbicidal rating (ORYSAT (Rice, Tebonnet); rate 0.0630 kg/ha): 2.0
- Herbicidal rating CYPIR (CYPIR (Rice Flatsedge) [3]; Rate 0.0313 kg/ha): 0.0
- Herbicidal rating CYPIR (CYPIR (Rice Flatsedge) [3]; Rate 0.0625 kg/ha): 0.0
- Herbicidal rating CYPIR (CYPIR (Rice Flatsedge) [3]; Rate 0.1250 kg/ha): 0.0
- Herbicidal rating CYPIR (CYPIR (Rice Flatsedge) [3]; Rate 0.2500 kg/ha): 0.0
- Herbicidal rating CYPSE (CYPSE (Flatsedge); Rate 0.0313 kg/ha): 0.0
- Herbicidal rating CYPSE (CYPSE (Flatsedge); Rate 0.0625 kg/ha): 0.0
- Herbicidal rating CYPSE (CYPSE (Flatsedge); Rate 0.1250 kg/ha): 0.0
- Herbicidal rating CYPSE (CYPSE (Flatsedge); Rate 0.2500 kg/ha): 0.0
- ABUTH herbicidal rating (ABUTH (Velvetleaf); rate 0.0158 kg/ha): 7.0
- ABUTH herbicidal rating (ABUTH (Velvetleaf); rate 0.0315 kg/ha): 9.0
- ABUTH herbicidal rating (ABUTH (Velvetleaf); rate 0.0630 kg/ha): 9.0
- IPOHE rating ([4]; 0.1250 kg/ha): 0.0
- IPOHE rating ([4]; 0.2500 kg/ha): 0.0
- CYPIR herbicidal effect rating (CYPIR (Rice Flatsedge) [5]; 0.0313 kg/ha): 0.0
- CYPIR herbicidal effect rating (CYPIR (Rice Flatsedge) [5]; 0.0625 kg/ha): 0.0
- CYPIR herbicidal effect rating (CYPIR (Rice Flatsedge) [5]; 0.1250 kg/ha): 0.0
- CYPIR herbicidal effect rating (CYPIR (Rice Flatsedge) [5]; 0.2500 kg/ha): 0.0
- ECHORC herbicidal effect rating ([6]; 0.0313 kg/ha): 0.0
- ECHORC herbicidal effect rating ([6]; 0.0625 kg/ha): 0.0
- ECHORC herbicidal effect rating ([6]; 0.1250 kg/ha): 2.0
- ECHORC herbicidal effect rating ([6]; 0.2500 kg/ha): 4.0
